Consider one molecule from paper PMC9550195, “GSK3β-dependent lysosome biogenesis: An effective pathway to mitigate renal fibrosis with LM49” (Frontiers in Pharmacology, 2022).

SMILES strings stand for the structures.

A word on the Kd: it is the constant that tells how readily two partners part at equilibrium.

The assay has as its target T1, GSK3β (Homo sapiens, UniProt P49841).
T1 construct: gene GSK3B
Briefly: BLI with immobilised biotinylated recombinant GSK-3β; supported by mobility shift kinase assay (IC50 […]), Lineweaver-Burk, CETSA, DARTS. The class given is binding.

T1 sequence (P49841 whole entry): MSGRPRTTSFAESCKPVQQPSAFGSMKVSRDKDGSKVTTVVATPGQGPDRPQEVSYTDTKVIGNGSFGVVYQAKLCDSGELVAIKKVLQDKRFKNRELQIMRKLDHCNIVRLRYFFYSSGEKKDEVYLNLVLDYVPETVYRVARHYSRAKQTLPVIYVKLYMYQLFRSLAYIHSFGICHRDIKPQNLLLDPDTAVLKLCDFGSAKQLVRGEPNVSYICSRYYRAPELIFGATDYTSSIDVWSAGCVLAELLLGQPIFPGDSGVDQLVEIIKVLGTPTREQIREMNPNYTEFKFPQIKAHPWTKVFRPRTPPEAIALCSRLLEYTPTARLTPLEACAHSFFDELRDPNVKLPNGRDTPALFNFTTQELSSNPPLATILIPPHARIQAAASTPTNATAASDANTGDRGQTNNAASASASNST

With `O=C(c1cc(Br)ccc1O)c1cc(O)c(O)cc1Br` [LM49, 5,2′-dibromo-2,4′,5′-trihydroxydiphenylmethanone], the equilibrium dissociation constant (Kd) turned out to be 122 µM.
